The test deals with human synovial cells. Description: Cartilage pellet culture of human synovial cells (weight of cartilage pellets; differentiation into cartilage cells). The test is classed as cell-based. Particulars: for activity at 50 µM / activity at 5 µM: Homo sapiens, Synovial cell, 504 h, read-out: Rate of increase (%); for Weight of pellets (g) (Ave): cultured three weeks; for weight of the cartilage pellets as compared to the control: result in words. The procedure:
Purchased human synovial cells (available from Toyobo Co., Ltd.; HFLS (Normal), cryopreserved cells (adult); Code No. CA40805a) were seeded into a 150 mm culture dish (available from Corning) at a low density of 50 cells/cm^2 and cultured for 14 days.
The human synovial cells were cultured in the following medium. • α-MEM (available from Nacalai Tesque Inc.) • 10% Fetal bovine serum (available from Sigma-Aldrich) Antibiotic-Antimycotic Mixed Stock Solution (available from Nacalai Tesque Inc.)
Proliferated human synovial cells were detached with Accutase (available from Funakoshi Co., Ltd.), and the medium containing 20 × 10^4 cells was placed in a 15 mL tube made of polypropylene, followed by centrifugation at 1000 × rpm for five minutes. The recovered human synovial cells were cultured in a medium containing a test compound shown in Table 1 for three weeks, and the weight of the resultant cartilage pellets was measured (N = 3, each). The medium containing the test compound was replaced once in two or three days. The test compound was dissolved in the medium using dimethyl sulfoxide (DMSO) (available from Nacalai Tesque Inc.; final concentration: 0.1%) to a final concentration of 50 µM. The test compound was taxifolin (available from Sigma-Aldrich) or hesperetin (available from Funakoshi Co., Ltd.).
The cartilage pellets were cultured in the following medium. The control was cultured by adding DMSO without test compounds to the medium described below (final concentration of DMSO: 0.1%).
DMEM high-glucose (available from Thermo Fisher Scientific) 50 µg/mL L-ascorbic acid 2-phosphate sesquimagnesium salt hydrate (available from Sigma-Aldrich) 40 µg/mL L-proline (available from Sigma-Aldrich) 100 µg/mL Sodium pyruvate (available from Sigma-Aldrich) 50 mg/mL ITS + Premix (available from Corning) 10 ng/mL Transforming growth factor β3 (available from Sigma-Aldrich) 100 nM Dexamethasone (available from Sigma-Aldrich) 50 ng/mL Bone morphogenetic protein 2 (BMP-2) (available from Sigma-Aldrich)
In Table 1, the weight of pellets (g) is the weight of the cartilage pellets (average with N of 3), and SE is the standard error of the weight of pellets. […] A significant difference in the rate of increase (%) determined from the weight of the cartilage pellets relative to the control was tested by Student's t-test, with the significance level being 5% or lower. […]
The test of Example 1 was repeated, except that quercetin (available from Nacalai Tesque Inc.), isorhamnetin (available from Funakoshi Co., Ltd.), or eriodictyol (available from Funakoshi Co., Ltd.) was used as a test compound, and the test compound in the medium was adjusted to a final concentration of 5 µM. […] A significant difference test was performed as in Example 1, with the significance level being 5% or lower.
The test of Example 1 was repeated, except that luteolin (available from Funakoshi Co., Ltd.) or morin (available from Nacalai Tesque Inc.) was used as a test compound, and the test compound in the medium was adjusted to a final concentration of 5 µM. […] A significant difference test was performed as in Example 1, with the significance level being 5% or lower and the marginal significance level being 10% or lower. […]
The test of Example 1 was repeated, except that the compounds shown in Table 4 were used as test compounds and tested with N = 1. […] The final concentration of each of the compounds Nos. 1 to 15 in the medium was adjusted to 5 µM. The final concentration of each of the compounds Nos. 16 to 21 in the medium was adjusted to 50 µM.

Setting [1] is: Comparative Example 1, compounds Nos. 16 to 21, 50 µM, weight relative to control taken as 100%, N = 1.
[2] abbreviates: Comparative Example 1, compounds Nos. 1 to 15, 5 µM, weight relative to control taken as 100%, N = 1.
The mark [3] stands for this setting: Example 2, test compound 5 µM in medium, average with N of 3.
Where [4] appears, read: Example 2, 5 µM, weight of cartilage pellets relative to control taken as 100%, N = 3.
Where [5] appears, read: Example 1, test compound 50 µM in medium, average with N of 3.
[6] abbreviates: Example 1, 50 µM, weight of cartilage pellets relative to control taken as 100%, N = 3.
Setting [7] is: Example 3, test compound 5 µM in medium, average of N of 3.
Setting [8] is: Example 3, 5 µM, weight of cartilage pellets relative to control taken as 100%, N = 3.

From patent publication EP4008401A1, “COMPOSITION FOR CARTILAGE REGENERATION PROMOTION” (Suntory Holdings Limited, priority 2019, dated 2021) come the findings set out here.

Like-named read-outs stand apart in the source and are kept apart here.

`O=c1cc(-c2ccccc2)oc2cc(O)cc(O)c12` [Chrysin]: the activity at 50 µM under setting [1] was 108%.

For the molecule `COc1ccc(-c2coc3cc(O)ccc3c2=O)cc1` [Formononetin], the activity at 5 µM under setting [2] is 100%. `Oc1cc(O)c2c(c1)OC(c1ccc(O)c(O)c1)C(O)C2` (stereo not drawn) [Catechin]: the activity at 50 µM was determined as 112%. Regarding `O=c1cc(-c2ccc(O)cc2)oc2cc(O)cc(O)c12` [Apigenin], the activity at 5 µM under setting [2] came out at 105%. As to `O=C1c2c(O)cc(O)cc2OCC1c1ccc(O)cc1` (stereo not drawn) [Dihydrogenistein], the activity at 50 µM under setting [1] amounted to 92.9%. With `COc1cc(-c2oc3cc(O)cc(O)c3c(=O)c2O)ccc1O` [Isorham netin, isorhamnetin], the “Weight of pellets (g) (Ave)” value under setting [3] was 5.77 g. In addition, the “weight of the cartilage pellets as compared to the control” value (“weight … compared to the control” for short) (Examples 2 and 3, 5 µM) is on record as “significant increase”. Also, under setting [4], the activity at 5 µM was found to be 159%. In the case of `Oc1cc(O)c2c(c1)O[C@H](c1ccc(O)c(O)c1)[C@H](O)C2` [Epicatechin], under setting [1], the activity at 50 µM was 117%. Turning to `O=c1c(-c2ccc(O)c(O)c2)coc2cc(O)ccc12` [7,3',4'-Trihydroxyisoflavone], the activity at 5 µM under setting [2] is 95.3%.

With `O=C1c2c(O)cc(O)cc2O[C@H](c2ccc(O)c(O)c2)[C@H]1O` [Taxifolin, taxifolin], the “weight … compared to the control” value (Example 1, 50 µM) is “significant increase”. The “Weight of pellets (g) (Ave)” value under setting [5] is recorded as 5.73 g. In addition, under setting [6], the activity at 50 µM came to 144%. Consider `O=c1cc(-c2ccc(O)c(O)c2)oc2cc(O)cc(O)c12` [Luteolin, luteolin], for which the “Weight of pellets (g) (Ave)” value under setting [7] was found to be 3.53 g. Besides, where the note is “Examples 2 and 3, 5 µM”, the “weight … compared to the control” value was “increase”. Moreover, under setting [8], the activity at 5 µM amounted to 128%. As for `O=C(/C=C/c1ccc(O)c(O)c1)c1c(O)cc(O)cc1O` [3,4,2',4',6'-Pentahydroxychalcon], the activity at 5 µM under setting [2] turned out to be 111%. Still for that read-out and setting: in the case of `Oc1cc(O)c2cc(O)c(-c3cc(O)c(O)c(O)c3)[o+]c2c1` [Delphinidin] it was 41.9%. Turning to `O=C1C[C@@H](c2ccc(O)cc2)Oc2cc(O)cc(O)c21` [Naringenin], under setting [1], the activity at 50 µM came to 117%. As for `COc1ccc([C@@H]2CC(=O)c3c(O)cc(O)cc3O2)cc1O` [Hesperetin, hesperetin], the “weight … compared to the control” value (Example 1, 50 µM) was “significant increase”. Moreover, the “Weight of pellets (g) (Ave)” value under setting [5] is given as 5.50 g. For the same molecule, the activity at 50 µM under setting [6] is 139%.

With `O=c1c(O)c(-c2ccc(O)cc2O)oc2cc(O)cc(O)c12` [Morin, morin], the “Weight of pellets (g) (Ave)” value under setting [7] is 4.00 g. Besides, the “weight … compared to the control” value (Examples 2 and 3, 5 µM) is listed as “significant increase”. Besides, the activity at 5 µM under setting [8] stood at 145%. As to `O=C(/C=C/c1ccc(O)cc1)c1c(O)cc(O)cc1O` [4,2',4',6'-Tetrahydroxychalcon], the activity at 5 µM under setting [2] turned out to be 118%. On to `O=c1c(O)c(-c2ccc(O)c(O)c2)oc2cc(O)cc(O)c12` [Quercetin, quercetin], for which, under setting [3], the “Weight of pellets (g) (Ave)” value is listed as 5.90 g. Besides, the “weight … compared to the control” value (Examples 2 and 3, 5 µM) is “significant increase”. The activity at 5 µM under setting [4] came to 162%. For the molecule `O=c1c(-c2ccc(O)cc2)coc2cc(O)ccc12` [Daidzein], under setting [2], the activity at 5 µM was found to be 100%. Still for that read-out and setting: in the case of `COc1ccc(-c2coc3cc(O)cc(O)c3c2=O)cc1` [Biochaninn A] it was 21.4%. Turning to `O=c1c(O)c(-c2ccc(O)cc2)oc2cc(O)cc(O)c12` [Kaempferol], the activity at 50 µM under setting [1] worked out at 95.8%.

Consider `O=C(/C=C/c1ccc(O)cc1)c1ccc(O)cc1O` [Isoliquiritigenin], for which the activity at 5 µM worked out at 82.1%. As for `Oc1cc(O)c2cc(O)c(-c3ccc(O)c(O)c3)[o+]c2c1` [Cyanidin], under setting [2], the activity at 5 µM came out at 51.2%. Consider `O=C1C[C@@H](c2ccc(O)c(O)c2)Oc2cc(O)cc(O)c21` [Eriodictyol, eriodictyol], for which the “Weight of pellets (g) (Ave)” value under setting [3] is listed as 4.80 g. Besides, the “weight … compared to the control” value (Examples 2 and 3, 5 µM) is “significant increase”. In addition, the activity at 5 µM under setting [4] was found to be 132%. Turning to `COc1ccc(-c2coc3cc(O)ccc3c2=O)cc1O` [Calycosin], the activity at 5 µM under setting [2] is 95.3%.

As for `C[C@@H]1O[C@@H](O[C@H]2C(=O)c3c(O)cc(O)cc3O[C@@H]2c2ccc(O)c(O)c2)[C@H](O)[C@H](O)[C@H]1O` [Astilbin], under setting [2], the activity at 5 µM stood at 60.5%.

`O=c1c(O)c(-c2cc(O)c(O)c(O)c2)oc2cc(O)cc(O)c12` [Myricetin]: under setting [2], the activity at 5 µM amounted to 69.8%. For the molecule `Oc1ccc([C@H]2COc3cc(O)ccc3C2)cc1` [Equol], the activity at 5 µM worked out at 81.4%.

As for `O=c1c(-c2ccc(O)cc2)coc2cc(O)cc(O)c12` [Genistein], the activity at 5 µM under setting [2] came to 104%.
